# Earlier results in patent US8188245B2, “Enduracidin biosynthetic gene cluster from streptomyces fungicidicus” (priority 2006, dated 2012).
# Experiments:
# [1] = system: S. aureus (100 strains, including 40% MRSA); conditions: 100 strains of S. aureus
# [2] = system: vancomycin resistant bacteria
# [3] = system: Gram-positive organisms, including MRSA
substance,measurement,setting,value
Enduracidin,Concentration that no strain was able to survive,[1],1 µg/mL
same,Antibacterial activity,[2],active
same,Type of antibacterial effect,[3]; in vitro,bactericidal
same,Minimal inhibitory concentrations (MICs),"[3]; wide spectrum of primarily Gram-positive organisms, lowest MICs (""as low as"")",≥ 0.05 µg/mL
same,Antibacterial activity,"[3]; wide variety of Gram-positive bacteria, including VRE and MRSA",active
same,Toxicity or side effects,MRSA; in vivo,No toxicity or side effects were reported
same,Efficacy in humans,MRSA; urinary tract and skin infections caused by MRSA,effective
